The melting point is the temperature of the solid-liquid transition.

Counter-ions that a name gives are not always drawn.

The results in this text go back to patent publication US7855297B2, “Amide derivatives and medicinal use thereof” (Mitsubishi Tanabe Pharma Corporation, priority 2000, dated 2010).

As for `COc1ccc2c(c1)C(C(=O)N(Cc1ccc(N(C)C)nc1)c1ccc(C(C)C)cc1)CCC2` (stereo not shown) (as salt: hydrochloride) (hydrate or solvate) [Example 55, N-[(6-dimethylaminopyridin-3-yl)methyl]-N-(4-isopropylphenyl)-7-methoxy-1,2,3,4-tetrahydronaphthalene-1-carboxamide hydrochloride ½ hydrate], the melting point fell in the range of 158 to 160 °C.
For the compound `COc1ccc(CN(C(=O)C2CCCc3ccc(OC)cc32)c2ccc(C(C)C)cc2)nc1` (stereo not shown) (as salt: hydrochloride) (hydrate or solvate) [Example 56, N-(4-isopropylphenyl)-N-[(5-methoxypyridin-2-yl)methyl]-7-methoxy-1,2,3,4-tetrahydronaphthalene-1-carboxamide hydrochloride ½ hydrate], the melting point was in the range of 108 to 110 °C.
For the compound `COc1ccc(N(Cc2ccc(N(C)C)cc2)C(=O)C2CCCc3ccc(F)cc32)cc1` (stereo not shown) (as salt: hydrochloride) (hydrate or solvate) [Example 128, N-[(4-dimethylaminophenyl)methyl]-7-fluoro-N-(4-methoxyphenyl)-1,2,3,4-tetrahydronaphthalene-1-carboxamide hydrochloride ½ hydrate], the melting point is 125.4 °C.
As for `COc1ccc2c(c1)C(C(=O)N(Cc1ccc(OC)nc1)c1ccc(C(C)C)cc1)CCC2` (stereo not shown) (as salt: hydrochloride) [Example 46, N-(4-isopropylphenyl)-N-[(6-methoxypyridin-3-yl)methyl]-7-methoxy-1,2,3,4-tetrahydronaphthalene-1-carboxamide monohydrochloride], the melting point was 114 to 117 °C.
The compound `CC(C)c1ccc(N(Cc2ccc(N(C)C)cc2)C(=O)C2CCCc3ccc(F)cc32)cc1` (stereo not shown) (as salt: hydrochloride) [Example 127, N-[(4-dimethylaminophenyl)methyl]-7-fluoro-N-(4-isopropylphenyl)-1,2,3,4-tetrahydronaphthalene-1-carboxamide hydrochloride] registered a melting point of 165.6 °C.
Consider `COc1ccc2c(c1)C(C(=O)N(Cc1ccc(N(C)C)cc1)c1ccc(Br)cc1)CCC2` (stereo not shown) (as salt: hydrochloride) [Example 200, N-(4-bromophenyl)-N-[(4-dimethylaminophenyl)methyl]-7-methoxy-1,2,3,4-tetrahydronaphthalene-1-carboxamide hydrochloride], for which the melting point was in the range of 104 to 113 °C.
Take `CC(C)c1ccc(N(Cc2ccc(N(C)C)cc2)C(=O)C2CCCc3c(OCCN(C)C)cccc32)cc1` (stereo not shown) (as salt: oxalate) (hydrate or solvate) [Example 113, 5-[2-(dimethylamino)ethoxy]-N-[(4-dimethylaminophenyl)methyl]-N-(4-isopropylphenyl)-1,2,3,4-tetrahydronaphthalene-1-carboxamide oxalate ¼ hydrate]: the melting point turned out to be 155.7 °C.
In turn, `CCn1cc(CN(C(=O)C2CCCc3c(OCCCN(C)C)cccc32)c2ccc(C(C)C)cc2)cn1` (stereo not shown) (as salt: oxalate) [Example 267, 5-[3-(dimethylamino)propoxy]-N-[(1-ethylpyrazol-4-yl)methyl]-N-(4-isopropylphenyl)-1,2,3,4-tetrahydronaphthalene-1-carboxamide 3/2 oxalate] gave a melting point of 142.6 °C.
The same measure for `CC(C)c1ccc(N(Cc2ccc(N(C)C)cc2)C(=O)C2CCCc3cc(OCCN(C)C)ccc32)cc1` (stereo not shown) (hydrate or solvate) [Example 106, 6-[2-(dimethylamino)ethoxy]-N-[(4-dimethylaminophenyl)methyl]-N-(4-isopropylphenyl)-1,2,3,4-tetrahydronaphthalene-1-carboxamide ⅕ hydrate]: 132.6 °C; for `CCc1ccc(N(Cc2ccc(N(C)C)cc2)C(=O)C2CCCc3ccccc32)cc1` (stereo not shown) [Example 1, N-[(4-dimethylaminophenyl)methyl]-N-(4-ethylphenyl)-1,2,3,4-tetrahydronaphthalene-1-carboxamide]: 109 to 110 °C; for `CC(C)COc1ccc(Br)cc1N(Cc1ccc(N(C)C)cc1)C(=O)C1CCCc2ccccc21` (stereo not shown) [Example 5, N-(5-bromo-2-isobutoxyphenyl)-N-[(4-dimethylaminophenyl)methyl]-1,2,3,4-tetrahydronaphthalene-1-carboxamide]: 176 to 178 °C.
With `CC(C)c1ccc(N(Cc2ccc(N(C)C)cc2)C(=O)C2CCCc3c(O)cccc32)cc1` (stereo not shown) [Example 17, N-[(4-dimethylaminophenyl)methyl]-5-hydroxy-N-(4-isopropylphenyl)-1,2,3,4-tetrahydronaphthalene-1-carboxamide], the melting point was in the range of 200 to 202 °C.
The compound `CC(C)c1ccc(N(Cc2ccc(N(C)C)cc2)C(=O)C2CCCc3ccc(O)cc32)cc1` (stereo not shown) [Example 20, N-[(4-dimethylaminophenyl)methyl]-7-hydroxy-N-(4-isopropylphenyl)-1,2,3,4-tetrahydronaphthalene-1-carboxamide] had a melting point of 214 to 217 °C.
`COc1ccc2c(c1)C(C(=O)N(Cc1ccc(S(C)(=O)=O)cc1)c1ccc(C(C)C)cc1)CCC2` (stereo not shown) [Example 35, N-(4-isopropylphenyl)-N-[(4-methylsulfonylphenyl)methyl]-7-methoxy-1,2,3,4-tetrahydronaphthalene-1-carboxamide] registered a melting point of 131 to 132 °C.
The same measure for `CC(C)c1ccc(N(Cc2ccc(N(C)C)cc2)C(=O)C2CCCc3cc(O)ccc32)cc1` (stereo not shown) [Example 37, N-[(4-dimethylaminophenyl)methyl]-6-hydroxy-N-(4-isopropylphenyl)-1,2,3,4-tetrahydronaphthalene-1-carboxamide]: 169 to 171 °C.
`CC(C)c1ccc(N(Cc2ccc(N(C)C)cc2)C(=S)C2CCCc3ccccc32)cc1` (stereo not shown) [Example 54, N-[(4-dimethylaminophenyl)methyl]-N-(4-isopropylphenyl)-1,2,3,4-tetrahydronaphthalene-1-carbothioamide] had a melting point of 123 to 125 °C.
The same measure for `COc1ccc2c(c1)C(C(=O)N(Cc1ccc(CO)cc1)c1ccc(C(C)C)cc1)CCC2` (stereo not shown) [Example 95, N-{[4-(hydroxymethyl)phenyl]methyl}-N-(4-isopropylphenyl)-7-methoxy-1,2,3,4-tetrahydronaphthalene-1-carboxamide]: 143.2 °C.
With `COc1ccc(CN(C(=O)C2CCCc3c(O)cccc32)c2ccc(C(C)C)nc2)c(OC)n1` (stereo not shown) [Example 133, N-[(2,6-dimethoxypyridin-3-yl)methyl]-5-hydroxy-N-(6-isopropylpyridin-3-yl)-1,2,3,4-tetrahydronaphthalene-1-carboxamide], the melting point is 164 °C.
`COc1ccc2c(c1)C(C(=O)N(Cc1ccc(N)cc1)c1ccc(C(C)C)cc1)CCC2` (stereo not shown) [Example 167, N-[(4-aminophenyl)methyl]-N-(4-isopropylphenyl)-7-methoxy-1,2,3,4-tetrahydronaphthalene-1-carboxamide]: the melting point was in the range of 115 to 117 °C.
In the case of `CC(C)c1ccc(N(Cc2cnn(CCN(C)C)c2)C(=O)C2CCCc3c(O)cccc32)cc1` (stereo not shown) [Example 355, N-({1-[2-(dimethylamino)ethyl]pyrazol-4-yl}methyl)-5-hydroxy-N-(4-isopropylphenyl)-1,2,3,4-tetrahydronaphthalene-1-carboxamide], the melting point stood at 92 °C.
With `CC(C)c1ccc(N(Cc2cnn(CCO)c2)C(=O)C2CCCc3c(O)cccc32)cc1` (stereo not shown) [Example 362, 5-hydroxy-N-{[1-(2-hydroxyethyl)pyrazol-4-yl]methyl}-N-(4-isopropylphenyl)-1,2,3,4-tetrahydronaphthalene-1-carboxamide], the melting point was in the range of 110 to 114 °C.
For the compound `CC(C)c1ccc(N(Cc2cnn(CC(F)(F)F)c2)C(=O)C2CCCc3c(O)cccc32)cn1` (stereo not shown) [Example 435, 5-hydroxy-N-(6-isopropylpyridin-3-yl)-N-{[1-(2,2,2-trifluoroethyl)pyrazol-4-yl]methyl}-1,2,3,4-tetrahydronaphthalene-1-carboxamide], the melting point turned out to be 127.7 °C.
